# Experimental data reported in patent US10807992B2, “Single enantiomer antiparasitic compounds” (priority 2017, dated 2020).
# Test system: Ixodes scapularis
# Assay: In vitro contact activity against adult ticks (coated vial), I. scapularis
# Conditions: for mortality at 0.006 µM: Trial 1, dose 0.006 μM; for mortality at 0.024 µM: Trial 1, dose 0.024 μM; for mortality at 0.098 µM: Trial 1, dose 0.098 μM; for mortality at 0.39 µM: Trial 1, dose 0.39 μM; for mortality at 1.56 µM: Trial 1, dose 1.56 μM; for mortality at 6.25 µM: Trial 1, dose 6.25 μM; for mortality at 25 µM: Trial 1, dose 25 μM; for mortality at 100 µM: Trial 1, dose 100 μM
# Experimental: Rhipicephalus sanguineus, Dermacentor variabilis, Amblyomma americanum, (Ecto Services, Inc., Henderson, N.C.) and Ixodes scapularis (Oklahoma State University, Stillwater, Okla.) aged between 2-4 weeks post molt were held in an environmental chamber at 24° C., 80% humidity with 12-hour light/dark cycles.
# For tick assays, vial caps were pre-drilled with a single hole in the center of each cap to allow air exchange. A filter paper (Whatman Grade 540 2.1 cm) was placed in the lid of each vial. An aliquot from each compound stock was added to an acetone/triton solution to achieve the desired top doses for the study. Serial dilutions were conducted from the top dose (i.e. 100 ppm) to achieve the desired titration range for EC50 and EC90 determination. For R. sanguineus, D. variabilis, and A. americanum, the final DMSO concentration in each test vial was 0.5%. For I. scapularis, compounds were solubilized directly in an acetone/triton solution due to I. scapularis' sensitivity to DMSO. A 459 μL aliquot of each compound formulation was transferred to a vial containing a Whatman Grade 540 2.1 cm filter paper. Vials were immediately placed on an unheated roller unit to allow for an even coating of the vial walls. After vials were coated, 41 μL of each compound formulation was added to the filter paper embedded in each vial cap. Each cap was allowed to dry. The vials were loosely capped and allowed to dry for a minimum of four hours in a chemical fume hood.
# Compounds tested were: the C1 racemate, C1 (R) enantiomer, and the C1 (S) enantiomer. For Trial 3, the C1 (R) enantiomer and the C1 (S) enantiomer were further chiral purified to achieve >99% purity.
# Ten adult ticks were added to each vial and held at 24° C., 80% humidity with 12-hour light/dark cycles. Adult ticks were assessed for percent mortality at various time points between 2 hours and 48 hours post infestation. Ticks were stimulated on a heated roller unit and evaluated. Ticks showing no movement, or very slow and uncoordinated movement were noted as dead.
smiles,measurement,setting,value
"O=C(CC(F)(F)F)N1CC2(C1)OCc1cc(C3=NS[C@@](c4cc(Cl)c(F)c(Cl)c4)(C(F)(F)F)C3)ccc12 [C1 (S) enantiomer, (S)-1-[6-[5-(3,5-dichloro-4-fluoro-phenyl)-5-(trifluoromethyl)-4H-isothiazol-3-yl]spiro[1H-isobenzofuran-3,3′-azetidine]-1′-yl]-3,3,3-trifluoro-propan-1-one]",mortality at 0.006 µM,"2 h, Rep1",0%
same,mortality at 0.006 µM,"2 h, Rep2",0%
same,mortality at 0.024 µM,"2 h, Rep1",0%
same,mortality at 0.024 µM,"2 h, Rep2",0%
same,mortality at 0.098 µM,"2 h, Rep1",0%
same,mortality at 0.098 µM,"2 h, Rep2",0%
same,mortality at 0.39 µM,"2 h, Rep1",0%
same,mortality at 0.39 µM,"2 h, Rep2",0%
same,mortality at 1.56 µM,"2 h, Rep1",0%
same,mortality at 1.56 µM,"2 h, Rep2",0%
same,mortality at 6.25 µM,"2 h, Rep1",0%
same,mortality at 6.25 µM,"2 h, Rep2",0%
same,mortality at 25 µM,"2 h, Rep1",0%
same,mortality at 25 µM,"2 h, Rep2",0%
same,mortality at 100 µM,"2 h, Rep1",0%
same,mortality at 100 µM,"2 h, Rep2",0%
same,mortality at 0.006 µM,"6 h, Rep1",0%
same,mortality at 0.006 µM,"6 h, Rep2",0%
same,mortality at 0.024 µM,"6 h, Rep1",0%
same,mortality at 0.024 µM,"6 h, Rep2",0%
same,mortality at 0.098 µM,"6 h, Rep1",0%
same,mortality at 0.098 µM,"6 h, Rep2",0%
same,mortality at 0.39 µM,"6 h, Rep1",0%
same,mortality at 0.39 µM,"6 h, Rep2",0%
same,mortality at 1.56 µM,"6 h, Rep1",0%
same,mortality at 1.56 µM,"6 h, Rep2",0%
same,mortality at 6.25 µM,"6 h, Rep1",0%
same,mortality at 6.25 µM,"6 h, Rep2",0%
same,mortality at 25 µM,"6 h, Rep1",40%
same,mortality at 25 µM,"6 h, Rep2",40%
same,mortality at 100 µM,"6 h, Rep1",100%
same,mortality at 100 µM,"6 h, Rep2",100%
same,mortality at 0.006 µM,"12 h, Rep1",0%
same,mortality at 0.006 µM,"12 h, Rep2",0%
same,mortality at 0.024 µM,"12 h, Rep1",0%
same,mortality at 0.024 µM,"12 h, Rep2",0%
same,mortality at 0.098 µM,"12 h, Rep1",0%
same,mortality at 0.098 µM,"12 h, Rep2",0%
same,mortality at 0.39 µM,"12 h, Rep1",0%
same,mortality at 0.39 µM,"12 h, Rep2",0%
same,mortality at 1.56 µM,"12 h, Rep1",0%
same,mortality at 1.56 µM,"12 h, Rep2",0%
same,mortality at 6.25 µM,"12 h, Rep1",40%
same,mortality at 6.25 µM,"12 h, Rep2",50%
same,mortality at 25 µM,"12 h, Rep1",100%
same,mortality at 25 µM,"12 h, Rep2",90%
same,mortality at 100 µM,"12 h, Rep1",100%
same,mortality at 100 µM,"12 h, Rep2",100%
same,mortality at 0.006 µM,"24 h, Rep1",0%
same,mortality at 0.006 µM,"24 h, Rep2",0%
same,mortality at 0.024 µM,"24 h, Rep1",0%
same,mortality at 0.024 µM,"24 h, Rep2",0%
same,mortality at 0.098 µM,"24 h, Rep1",0%
same,mortality at 0.098 µM,"24 h, Rep2",0%
same,mortality at 0.39 µM,"24 h, Rep1",0%
same,mortality at 0.39 µM,"24 h, Rep2",0%
same,mortality at 1.56 µM,"24 h, Rep1",50%
same,mortality at 1.56 µM,"24 h, Rep2",60%
same,mortality at 6.25 µM,"24 h, Rep1",100%
same,mortality at 6.25 µM,"24 h, Rep2",90%
same,mortality at 25 µM,"24 h, Rep1",100%
same,mortality at 25 µM,"24 h, Rep2",100%
same,mortality at 100 µM,"24 h, Rep1",100%
same,mortality at 100 µM,"24 h, Rep2",100%
same,mortality at 0.006 µM,"48 h, Rep1",0%
same,mortality at 0.006 µM,"48 h, Rep2",10%
same,mortality at 0.024 µM,"48 h, Rep1",0%
same,mortality at 0.024 µM,"48 h, Rep2",0%
same,mortality at 0.098 µM,"48 h, Rep1",10%
same,mortality at 0.098 µM,"48 h, Rep2",10%
same,mortality at 0.39 µM,"48 h, Rep1",40%
same,mortality at 0.39 µM,"48 h, Rep2",40%
same,mortality at 1.56 µM,"48 h, Rep1",90%
same,mortality at 1.56 µM,"48 h, Rep2",100%
same,mortality at 6.25 µM,"48 h, Rep1",100%
same,mortality at 6.25 µM,"48 h, Rep2",100%
same,mortality at 25 µM,"48 h, Rep1",100%
same,mortality at 25 µM,"48 h, Rep2",100%
same,mortality at 100 µM,"48 h, Rep1",100%
same,mortality at 100 µM,"48 h, Rep2",100%
